# Measured values as given in US20050042219A1, “Engineered Fab' fragment anti-tumor necrosis factor alpha in combination with disease modifying anti-rheumatic drugs” (priority 2002, published 2005).
# Marks after values point to notes of the source that are not given here.
# Columns and labels:
# [1] = PHA-001 study: PK interaction study with methotrexate in RA patients; details: single dose of CDP-870 400 mg SC; oral MTX 5-17.5 mg/week
# TNFβ (lymphotoxin) = target: T1, TNFβ (lymphotoxin) (Homo sapiens, UniProt P01374); experiment: Neutralization of TNFβ (lymphotoxin)
# T1 sequence (P01374 35-205): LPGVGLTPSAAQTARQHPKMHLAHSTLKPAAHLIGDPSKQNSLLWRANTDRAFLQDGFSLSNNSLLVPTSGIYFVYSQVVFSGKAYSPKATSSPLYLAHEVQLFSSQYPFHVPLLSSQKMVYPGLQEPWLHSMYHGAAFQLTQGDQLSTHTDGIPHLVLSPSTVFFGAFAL
# [2] = Half-life of the PEGylated Fab′ fragment; format: in vivo; details: PEG chains linked by a single maleimide group
# patients with active RA [3] = experiment: Celltech-002 study: single IV infusion, ACR responder rates; format: in vivo, human; details: for ACR20 responder rate / ACR50 responder rate: week 8
# Description: DMARD therapy was discontinued one month prior to study start; concomitant nonsteroidal anti-inflammatory drug (NSAID) and corticosteroid use was allowed provided the doses had been stabilized prior to entry into the study. […] Patients were assessed over an 8-week period.
# Patients were assessed for an additional 8-week period.
# (§1) The overall effect of CDP870 in reducing the signs and symptoms of RA was summarized using the following global index: • American College of Rheumatology (ACR) Core Set of Disease Activity Measures for Rheumatoid Arthritis Clinical Trials. A patient was considered an ACR 20/50/70 responder if 20/50/70% or greater improvement in number of swollen joints and tender joints and a 20/50/70% or greater improvement in three of the five remaining ACR core set measures (Patient's Assessment of Pain by VAS, Patient's Global Assessment of Disease Activity, Physician's Global Assessment of Disease Activity, Patient's Assessment of Physical Function by mHAQ, acute phase reactant value) was observed; and […]
# patients with active RA [4] = experiment: Celltech-004 study: SC every 4 weeks, ACR responder rates; format: in vivo, human; details: for ACR-20 responder rate / ACR-50 responder rate / ACR-70 responder rate: week 12
# Description: Again, DMARD therapy was discontinued one month prior to study start; concomitant NSAID and corticosteroid use was allowed provided the doses had been stabilized prior to entry into the study.
# The protocol was subsequently amended based on the results of the double-blind portion of Panel 1, to increase the dose to 400 mg SC every 4 weeks for an additional 108 weeks.
# as §1
# [5] = human, in vivo
compound,measurement,setting,value
"CN(Cc1cnc2nc(N)nc(N)c2n1)c1ccc(C(=O)N[C@@H](CCC(=O)O)C(=O)O)cc1 [MTX, methotrexate]","mean dose-adjusted MTX plasma concentrations, MTX alone versus coadministration with CDP-870",[1],not significantly different
"CDP-870: PEGylated anti-TNFα Fab′ fragment derived from antibody hTNF40, linked via a cysteine to a lysyl-maleimide linker bearing two methoxy PEG residues",neutralization of TNFβ (lymphotoxin),TNFβ (lymphotoxin),does not neutralize
same,half-life,[2],about 11 days
same,ACR20 responder rate,patients with active RA [3]; 1 mg/kg single IV,25 % of Patients
same,ACR50 responder rate,patients with active RA [3]; 1 mg/kg single IV,13 % of Patients
same,ACR20 responder rate,patients with active RA [3]; 5 mg/kg single IV,75 % of Patients
same,ACR50 responder rate,patients with active RA [3]; 5 mg/kg single IV,13 % of Patients
same,ACR20 responder rate,patients with active RA [3]; 20 mg/kg single IV,75 % of Patients
same,ACR50 responder rate,patients with active RA [3]; 20 mg/kg single IV,50 % of Patients
same,efficacy in reducing the signs and symptoms of RA,"patients with active RA [3]; single IV dose of 1, 5 or 20 mg/kg, over 8 weeks",efficacious
same,ACR-20 responder rate,patients with active RA [4]; 50 mg SC every 4 weeks,21 % of Patients
same,ACR-50 responder rate,patients with active RA [4]; 50 mg SC every 4 weeks,8 % of Patients
same,ACR-70 responder rate,patients with active RA [4]; 50 mg SC every 4 weeks,5 % of Patients
same,ACR-20 responder rate,patients with active RA [4]; 100 mg SC every 4 weeks,20 % of Patients
same,ACR-50 responder rate,patients with active RA [4]; 100 mg SC every 4 weeks,5 % of Patients
same,ACR-70 responder rate,patients with active RA [4]; 100 mg SC every 4 weeks,3 % of Patients
same,ACR-20 responder rate,patients with active RA [4]; 200 mg SC every 4 weeks,34 % of Patients
same,ACR-50 responder rate,patients with active RA [4]; 200 mg SC every 4 weeks,17* % of Patients
same,ACR-70 responder rate,patients with active RA [4]; 200 mg SC every 4 weeks,7 % of Patients
same,ACR-20 responder rate,patients with active RA [4]; 400 mg SC every 4 weeks,60* % of Patients
same,ACR-50 responder rate,patients with active RA [4]; 400 mg SC every 4 weeks,40* % of Patients
same,ACR-70 responder rate,patients with active RA [4]; 400 mg SC every 4 weeks,29* % of Patients
same,ACR-20 responder rate,patients with active RA [4]; 600 mg SC every 4 weeks,64* % of Patients
same,ACR-50 responder rate,patients with active RA [4]; 600 mg SC every 4 weeks,33* % of Patients
same,ACR-70 responder rate,patients with active RA [4]; 600 mg SC every 4 weeks,21* % of Patients
same,ACR-20 responder rate,patients with active RA [4]; 800 mg SC every 4 weeks,79* % of Patients
same,ACR-50 responder rate,patients with active RA [4]; 800 mg SC every 4 weeks,47* % of Patients
same,ACR-70 responder rate,patients with active RA [4]; 800 mg SC every 4 weeks,21* % of Patients
same,efficacy in treating the signs and symptoms of RA,patients with active RA [4]; doses ≧400 mg SC every 4 weeks,efficacious
same,mean plasma concentration at 55 days postdose,[5],2.74 µg/mL
same,CL/F (plasma clearance),[5]; sc,0.021 L/h
same,t½,[5]; sc,10.738 days
same,mean t½,"[5]; sc, 400 mg",10.7 days
same,overall plasma exposure (AUC) over the 55-day monitoring period,"[5]; sc, 400 mg",approximately 22000 hr*μg/mL
